Here are results for six molecules from patent EP1056700B1, “MEDICINAL USES OF PHENYLALKANOLS AND DERIVATES” (ZingoTX Pty Ltd, priority 1997, dated 1999).

A word on the IC50: it is the concentration needed to halve the response being measured. A low value points to inhibition by little substance. Broadly, the EC50 is the concentration needed to bring the measured effect to its halfway point. Usually LC50 stands for the concentration lethal to half of the exposed cells or organisms.

Values joined by “and” are separate entries in the source; they are usually repeats but may differ in a detail not shown here. Equal values may be shown once.

Series [1] concerns Platelet rich plasma. Put plainly: Platelet aggregation: [^3H]-serotonin release from platelet rich plasma, arachidonic acid initiated. Format: cell-based. The following applies: Homo sapiens, activation by EC50 concentration of arachidonic acid. As to the method: Blood was collected from healthy volunteers who had taken no medication in the previous two weeks. The anticoagulant used was 3.8 % trisodium citrate. Platelet rich plasma was prepared and incubated with [^3H]-serotonin. This was followed by addition of gingerol analogues. Platelet activation was initiated using the EC50 concentration for arachidonic acid. The percentage of [^3H]-serotonin release was measured using a liquid scintillation counter. Then, dose-response curves were established and IC50 values were obtained.

The test system of series [2] is Cyclo-oxygenase (COX). The series is described as follows: Cyclo-oxygenase assay in RBL 2H3 cells (PGD2 EIA). Format: cell-based, rat. The conditions noted are these: final concentration of 10 µM. How it is done: Cyclo-oxygenase (COX) assay was performed with cells in culture prepared from rat basophilic leukemia (RBL) 2H3 cell lines. Cells were cultured in EMEM containing 10% fetal calf serum and antibiotic until cells reached confluence. Harvested cells were subsequently seeded on 24-well plates at 1 x 10^6 cells/ml then incubated at 37°C for 3 hours. Cells were washed twice with incubation buffer (1.5 ml) containing 5 mM Hepes, 140 mM NaCl, 5 mM KCl, 0.6 mM MgCl2, 1 mM CaCl2 and […]. Cells were then covered with 0.49 ml of buffer, followed by addition of samples/solvents (0.005 ml) and incubated at 37 °C for 5 min on an orbital shaker. Arachidonic acid (0.005 ml, containing 50% EtOH) was subsequently added, and the plate was incubated at similar conditions for a further 10 min. The supernatant (0.1 ml) was aliquoted for methoxime derivatisation of PGD2, which was carried out by heating the supernatant with methoxime solution (1:1) at 60 °C for 30 min according to the instructions provided with the kit. The resultant solution was diluted with EIA buffer and stored on ice for EIA, following the protocol provided with the kit.
Validation of COX enzyme activity was carried out using EIA in which the enzyme activity was characterised against various concentrations of AA and a time course of enzyme activity.
[…] Indomethacin was used as reference compound. The concentration of DMSO in the assay was maintained at 1.5%.

Series [3] addresses T1, Lipoxygenase (LP) (Rattus norvegicus, UniProt P12527).
T1 construct: cell-free enzyme (Wong et al, 1991) prepared from rat basophilic leukemia (RBL) 2H3 cell lines; endogenous in cells; host or cells: RBL 2H3 (rat basophilic leukemia), 15,000 g supernatant of cells disrupted by nitrogen cavitation
T1 sequence (P12527 1-673): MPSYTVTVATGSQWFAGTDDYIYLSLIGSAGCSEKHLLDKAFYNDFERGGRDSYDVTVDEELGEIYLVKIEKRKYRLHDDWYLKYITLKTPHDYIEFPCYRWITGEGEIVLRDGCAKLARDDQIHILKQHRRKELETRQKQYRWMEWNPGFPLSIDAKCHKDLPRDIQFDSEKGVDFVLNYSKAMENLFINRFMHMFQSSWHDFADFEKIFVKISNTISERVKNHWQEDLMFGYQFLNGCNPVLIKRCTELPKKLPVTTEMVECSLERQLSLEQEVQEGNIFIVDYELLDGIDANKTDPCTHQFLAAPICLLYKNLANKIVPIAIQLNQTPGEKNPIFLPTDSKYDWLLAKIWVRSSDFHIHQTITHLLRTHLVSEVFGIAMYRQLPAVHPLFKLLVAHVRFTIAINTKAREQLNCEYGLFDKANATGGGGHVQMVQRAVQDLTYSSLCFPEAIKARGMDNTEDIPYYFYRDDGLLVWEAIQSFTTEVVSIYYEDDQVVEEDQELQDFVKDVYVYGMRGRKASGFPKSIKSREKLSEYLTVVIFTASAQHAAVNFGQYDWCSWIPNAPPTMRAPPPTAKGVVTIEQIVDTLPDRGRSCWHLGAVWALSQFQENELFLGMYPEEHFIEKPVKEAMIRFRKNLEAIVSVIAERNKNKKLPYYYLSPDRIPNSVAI
Put plainly: Lipoxygenase assay with cell-free enzyme from RBL 2H3 cells (EIA). The conditions noted are these: final concentration of 10 µM. Format: biochemical. How it is done: Lipoxygenase (LP) assay was performed with cell-free enzyme (Wong et al, 1991) prepared from rat basophilic leukemia (RBL) 2H3 cell lines. Cells were cultured in EMEM containing 10% fetal calf serum and antibiotic until cells reached confluence. Harvested cells were resuspended in Hepes (10 mM) buffer, pH 7.4, containing 1 mM EDTA at 1 x 10^7 cells/ml, and disrupted by nitrogen cavitation using a Parr bomb at 750 psi for 15 min. The broken cells were centrifuged at 15,000 g for 30 min. Aliquots (0.1 ml) of the supernatant were preincubated with or without drugs in Hepes buffer (10 mM Hepes, pH 7, 1 mM EDTA and 150 mM NaCl) for 5 min, and the reaction was initiated with the addition of 50 µl of CaCl2 (16 mM), 50 µl of ATP (2 mM), 5 µl of PAF (2.5 mg/ml) and 5 µl of AA (2.5 mM). The reaction mixture ([…]) was incubated at room temperature for a further 8 min, then diluted with EIA buffer at 1/200 and 1/2000 dilutions and stored on ice for EIA following the protocol provided with the kit.
Validation of LP enzyme activity was carried out by a UV spectrophotometric method in which the enzyme activity was characterised against various concentrations of Ca^2+, ATP, PAF and AA with the measurement of the formation of diene conjugated products of LP at 235 nm.
All compounds were dissolved in DMSO and assayed at a final concentration of 10 µM. NDGA was used as reference compound. The concentration of DMSO in the assay was maintained at 1.5%.

Series [4] concerns DRG neuronal cells. The series is described as follows: Peak [Ca^2+]i transients in cultured dorsal root ganglion neurons (Fura-2). Format: cell-based, rat. The following applies: 10 µM applied for 1 min, 2 mM Ca^2+. As to the method:
DRG from neonatal (3-5 days old) rat or adult Sprague-Dawley rats were incubated in Hanks CMF saline with 0.05% collagenase and 0.25% trypsin for 25 min at 37° C. Individual cells were obtained by trituration with fire polished Pasteur pipettes of diminishing diameters. Neurones were isolated from the cell suspension in 30% Percoll and then plated on collagen coated coverslips or in 24-well plates, then cultured in neurobasal medium with B27 supplement, 50 ng/ml 2.5 S nerve growth factor, 2 mM 1-glutamine and 100 U/ml penicillin/streptomycin. Cultures were maintained at 37° C with 5% CO2. 30% Percoll increases the percentage of capsaicin-sensitive DRG neurones up to 70%. For peak [Ca^2+]i transients measurements, cells on coverslips were incubated with 5 µM Fura-2 AM for 30 min at 37° C. The coverslips were then mounted on a chamber attached to a fast sample application perfusion system which allows changing solutions in the second range. Recordings were made on the stage of a Nikon Diaphot inverted microscope fitted with a Nikon 40 x Fluo (NA 0.85) DL Ph3 or 40 x Fluo (NA 1.3) oil objective. [Ca^2+]i was calculated from dual excitation wavelength (340/380 nm) fluorescence measurements following an intracellular calibration procedure by the Grynkiewicz equation, using MCID M2/M4 v.3.0 (Imaging Res. Inc.) software. Cells were continuously perfused with a solution consisting of 140 mM NaCl, 2 mM CaCl2, 5 mM KCl, 20 mM HEPES, 10 mM glucose, pH 7.4. To study KCl evoked depolarisation, 50 mM NaCl was replaced by equimolar KCl. Cytoplasmic localisation of Fura-2 was tested with the Mn^2+ quenching technique (Dedov and Roufogalis, 1998). All experiments were performed at room temperature (20-23°C).
Typical changes in [Ca^2+]i upon depolarisation were evoked by 50 mM KCl and by application of 1 µM capsaicin; both were applied for 30 sec. Capsaicin-evoked peak [Ca^2+]i transients are characterised by a fast rise and long-steady state [Ca^2+]i clearance from the cytoplasm. In capsaicin-sensitive cells the half-time of cytoplasmic Ca^2+ clearance was proportional to the amplitudes of peak [Ca^2+]i transients.
To examine the effect of gingerol derivatives, one or several compounds in succession at a concentration of 10 µM were applied for 1 min to the DRG neuronal cells followed by washing out for 4 min with physiological solution. To the capsaicin-sensitive cells, 10 µM capsaicin and 50 mM KCl were applied, respectively, to confirm the viability of the cells. In addition, morphological appearances of the cells were also examined at the end of experiment. […]

The test system of series [5] is guinea pig atria. Put plainly: Organ bath assay on isolated guinea pig atria (rate and force of contraction). The following applies: result in words, guinea pig atria. As to the method: Male guinea pigs, 3-4 weeks old, were killed by rapid cervical dislocation without induced anaesthesia. Then, the guinea pigs were dissected to isolate the atria which were immediately mounted vertically in an organ bath containing Krebs-Henseleit solution oxygenated with carbogen.
One gram tension was applied to the atria and the base line continuously adjusted until it was stable for 20 mins. The rate and force of contraction were recorded using Mac Lab equipment.
Test substances in DMSO were assayed to a maximum concentration of 50 µM at a final concentration of 2.5 % of DMSO.

Series [6] relates to rat mesenteric artery. Put plainly: Vasodilation on rat mesenteric small arteries. The source says:
Small arteries (200-300 µm in diameter) isolated from rat mesentery were precontracted with endothelin prior to addition of the test substances and tested for relaxation.

The nature of series [7]: Brine shrimp toxicity bioassay. Type of series: in vivo. The conditions noted are these: Artemia salina (brine shrimp), in vivo; 24 hours, 2% DMSO. The text has this:
The brine shrimp assay procedure determines LC50 values of active compounds. Activities of a broad range of known active compounds are manifested as toxicity to brine shrimp (Artemia salina Leach). There are many applications of the assay including analysis of toxic substances, anaesthetics, morphine-like substances and cocarcinogenicity of phorbol esters.
The method for testing solvent toxicity used was basically that reported by J L McLaughlin in Methods of Plant Biochemistry (1991), vol. 6 (K Hostettman, ed.), Academic Press, London, 1-32. DMSO solutions of the substances to be tested were added directly to the vials containing the brine shrimp. As the concentration of DMSO that we wished to use was higher than the recommended 1% v/v testing of the toxicity of the DMSO was therefore necessary. The concentrations of DMSO tested on the shrimp, along with the results from the assay which was done in duplicate are listed below.
Brine shrimp toxicity was assayed, except for some minor modifications, according to the method of McLaughlin et al as reported in Brine Shrimp: A convenient bioassay for active plant constituents, B N Meyer, N R Ferrigni, J E Putnam, L B Jacobsen, D E Nichols and J L McLaughlin in Planta Medica (1982), 45, 31-34 and Crown gall tumours on potato discs and brine shrimp lethality: Two simple bioassays for higher plant screening and fractionation. J L McLaughlin. Methods of Plant Biochemistry (1991), vol. 6 (K Hostettman, ed.), Academic Press, London, 1-32. Ten shrimp were transferred to each of the vials and the volume adjusted to 4.9 mL. Each dose was performed in triplicate, including the control. In quick succession, the appropriate volume of additional DMSO for each dose, required to achieve a final concentration of 2%, was added before the appropriate volume of test solution. The vials were gently mixed and the time noted. After 24 hours, the number of survivors were counted and % mortality was determined. The test compounds were assayed at concentrations of 100 µM, 25 µM, 5 µM, 1 µM and 0.2 µM (and where appropriate concentrations of 0.04 µM and 0.008 µM).
The brine shrimp were able to survive without food in the vials over the 24 hour period and were therefore not fed.
The dose-response curves were constructed using the Sigmaplot computer program and the LC50 value was calculated from the intersection point of the curve and the 50 % mortality line. The LC50 values were expressed in both µM and µg/mL.

For series [8], the system named is brine shrimp (Artemia salina Leach). The following applies: values determined by Meyer et al. (1982); cited from earlier work.

Consider `CCCCCCCCCC(=O)C(O)c1ccc(O)c(OC)c1` (stereo not drawn) [1-hydroxy-1-(4-hydroxy-3-methoxyphenyl)undecan-2-one], for which half-maximal inhibition in series [1] (IC50) required 69.4 ± 2.6 µM. In series [2], the “Cyclooxygenase activity % activity” value worked out at 16%. Further, the activity at 10 µM in series [3] was 83%.

`CCCCCCCCCCC(C)(O)CCc1ccc(O)c(OC)c1` (stereo not drawn) [3-methyl-1-(4-hydroxy-3-methoxyphenyl)tridecan-3-ol]: the IC50 in series [1] came to 75.3 ± 3.1 µM. Moreover, the activity at 10 µM in series [3] was 5%.

`CCCCCCCCC(C)(O)CCc1ccc(O)c(OC)c1` (stereo not drawn) [3-methyl-1-(4-hydroxy-3-methoxyphenyl)undecan-3-ol] returned an IC50 in series [1] of 45.3 ± 1.6 µM. In addition, in series [4], the “Number of capsaicin-sensitive cells responding” value is 0 out of 4 and the “Peak [Ca^2+]i (Average ±SD)” value was determined as 0 nM. In addition, the “Cyclooxygenase activity % activity” value in series [2] came out at 15%. Further, the activity at 10 µM in series [3] stood at 3%.

With `CC(=O)Oc1ccccc1C(=O)O` [Aspirin, reference compound], the IC50 in series [1] was 23.4 ± 1.7 µM.

As for `CCCCCCCCCC(=O)CCc1ccc(O)c(OC)c1` [[8]-paradol, 1-(4-hydroxy-3-methoxyphenyl)dodecan-3-one, reference compound], in series [5], the “FORCE OF CONTRACT^n” value was “inactive” and the “HEART RATE” value was “inactive”. In series [6] (Rattus norvegicus, relaxation of small arteries (200-300 µm) precontracted with endothelin), this molecule had an EC50 of 0.05 µM. For the same molecule, the “relaxation of rat mesenteric artery” value in series [6] (result in words) is “showed potency”. Moreover, in series [4], the “Number of capsaicin-sensitive cells responding” value is 1 and the “Peak [Ca^2+]i (Average ±SD)” value is on record as 200 nM. Moreover, the “Cyclooxygenase activity % activity” value in series [2] is reported as 11%. The same molecule had an activity at 10 µM in series [3] of 81%.

As for `COc1cc([C@@H]2c3cc4c(cc3[C@H](O)[C@H]3COC(=O)[C@H]23)OCO4)cc(OC)c1OC` [podophyllotoxin, reference compound], the LC50 at 24 h in series [7] was 3.8 µM and 1.6 µg/mL. The LC50 in series [8] was 5.8 µM.
